Measured values published in ChEMBL document CHEMBL5120819, “Tanzawaic Acids from a Deep-Sea Derived Penicillium Species” (J Nat Prod, 2022).

Tests used:
[1] = tested on: Candida albicans; assay: Antifungal activity against Candida albicans ATCC 10231 assessed as reduction in microbial growth after 12 to 18 hrs by microbroth dilution method; type: functional; conditions: time 12-18 hrs
[2] = tested on: Escherichia coli; assay: […] activity against Escherichia coli ATCC 35218 assessed as reduction in microbial growth after 12 to 18 hrs by microbroth dilution method; type: functional; conditions: time 12-18 hrs
[3] = Cytotoxicity against human A549 cells assessed as reduction in cell viability at 13 uM by SRB assay relative to control; type: toxicity, cell-based; conditions: read-out: GI

| Compound | MIC [1] | MIC [2] | inhibition at 13 µM [3] |
| --- | --- | --- | --- |
| C[C@H]1C[C@@H](C)[C@@H]2[C@@H](/C=C/C=C/C(=O)O)[C@@H](C)C=C[C@H]2C1 | 20 µg/mL | 10 µg/mL |  |
| COc1ccc([C@@H]2SS[C@@]34C[C@]5(O)[C@H](O)C=C[C@@H](O)[C@@H]5ON3C(=O)[C@@H]2N(C)C4=O)c(O)c1OC | 30 µg/mL |  |  |
| COc1ccc([C@@H]2SS[C@@]34C[C@]5(O)[C@H](OC(=O)/C=C/C=C/[C@@H]6[C@H]7[C@H](C)C[C@H](C)C[C@@H]7C=C[C@@H]6C)C=C[C@@H](O)[C@@H]5ON3C(=O)[C@@H]2N(C)C4=O)c(O)c1OC |  |  | 51.7% |
| COc1ccc([C@@H]2SS[C@@]34C[C@]5(O)[C@H](OC(=O)/C=C/C=C/c6c(C)ccc7c6[C@H](C)C[C@H](C)C7)C=C[C@@H](O)[C@@H]5ON3C(=O)[C@@H]2N(C)C4=O)c(O)c1OC |  |  | 90.7% |
